Test results as given in PubChem BioAssay AID2060504 (Molecular Pharmacology Branch, DTP, NCI, 2025).

Test system: 636577-100-R-J1-PDC complex spheroid viability
Experiment: Anticancer human tumor 636577-100-R-J1-PDC patient-derived endometrial adenocarcinoma cell line growth inhibition [GQUAD]
Conditions: for IC50: curve of first compound; for viability, T/C: stronger effect = lower value
How it was run: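 Multi-cell-type spheroids of tumor cells with HUVEC and mesenchymal stem cells, treated with drug combinations. Concentrations descend in half-log steps from near clinical Cmax, or from 10 microM where Cmax is unknown; viability read-out.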

[1] = second compound 0.0316 µM, first compound 0.0316 µM
[2] = second compound 0.0316 µM, first compound 0.1 µM
[3] = second compound 0.0316 µM, first compound 0.316 µM
[4] = second compound 0.0316 µM, first compound 1 µM
[5] = second compound 0.0316 µM, first compound 3.16 µM
[6] = second compound 0.0316 µM, first compound 10 µM
[7] = second compound 0.1 µM, first compound 0.0316 µM
[8] = second compound 0.1 µM, first compound 0.1 µM
[9] = second compound 0.1 µM, first compound 0.316 µM
[10] = second compound 0.1 µM, first compound 1 µM
[11] = second compound 0.1 µM, first compound 3.16 µM
[12] = second compound 0.1 µM, first compound 10 µM
[13] = second compound 0.316 µM, first compound 0.0316 µM
[14] = second compound 0.316 µM, first compound 0.1 µM
[15] = second compound 0.316 µM, first compound 0.316 µM
[16] = second compound 0.316 µM, first compound 1 µM
[17] = second compound 0.316 µM, first compound 3.16 µM
[18] = second compound 0.316 µM, first compound 10 µM
[19] = second compound 1 µM, first compound 0.0316 µM
[20] = second compound 1 µM, first compound 0.1 µM
[21] = second compound 1 µM, first compound 0.316 µM
[22] = second compound 1 µM, first compound 1 µM
[23] = second compound 1 µM, first compound 3.16 µM
[24] = second compound 1 µM, first compound 10 µM
[25] = second compound 3.16 µM, first compound 0.0316 µM
[26] = second compound 3.16 µM, first compound 0.1 µM
[27] = second compound 3.16 µM, first compound 0.316 µM
[28] = second compound 3.16 µM, first compound 1 µM
[29] = second compound 3.16 µM, first compound 3.16 µM
[30] = second compound 3.16 µM, first compound 10 µM
[31] = second compound 10 µM, first compound 0.0316 µM
[32] = second compound 10 µM, first compound 0.1 µM
[33] = second compound 10 µM, first compound 0.316 µM
[34] = second compound 10 µM, first compound 1 µM
[35] = second compound 10 µM, first compound 3.16 µM
[36] = second compound 10 µM, first compound 10 µM
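Also: viability read after seven days of drug exposure.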
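For viability, T/C in this document: luminescence signal used as a proxy for viable cells; 100% = DMSO vehicle control wells.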

In the case of `COc1cccc2c1C(=O)c1c(O)c3c(c(O)c1C2=O)CC(O)(C(=O)CO)CC3OC1CC(N)C(O)C(C)O1` (stereo unspecified) + Cc1[nH]c2ccc(F)cc2c1-c1nc2c3cccnc3c3ncccc3c2[nH]1, the IC50 (second compound 0.0316 µM) is reported as < 31.6 nM, the IC50 (second compound 0.1 µM) is reported as < 31.6 nM and the IC50 (second compound 0.316 µM) is reported as < 31.6 nM. The IC50 (second compound 1 µM) was < 31.6 nM, the IC50 (second compound 3.16 µM) was < 31.6 nM and the IC50 (second compound 10 µM) was < 31.6 nM. It also gave a viability, T/C [1] of 37.8%, a viability, T/C [2] of 16.7% and a viability, T/C [3] of 15.8%. For the same compound, the viability, T/C [4] was 11.2%, the viability, T/C [5] was 0.53% and the viability, T/C [6] was 0.35%. The viability, T/C [7] was 39.7%, the viability, T/C [8] was 18% and the viability, T/C [9] was 8.25%. For the same compound, the viability, T/C [10] was 9.06%, the viability, T/C [11] was 0.53% and the viability, T/C [12] was 0.34%. The viability, T/C [13] was 37%, the viability, T/C [14] was 18.9% and the viability, T/C [15] was 14%. The viability, T/C [16] was 9.89%, the viability, T/C [17] was 0.62% and the viability, T/C [18] was 0.43%. It also gave a viability, T/C [19] of 29.9%, a viability, T/C [20] of 18.7% and a viability, T/C [21] of 12.2%. It also gave a viability, T/C [22] of 8.92%, a viability, T/C [23] of 0.78% and a viability, T/C [24] of 0.5%. For the same compound, the viability, T/C [25] was 18.3%, the viability, T/C [26] was 18.4% and the viability, T/C [27] was 16.1%. For the same compound, the viability, T/C [28] was 11.4%, the viability, T/C [29] was 0.97% and the viability, T/C [30] was 0.58%. The viability, T/C [31] was 30.1%, the viability, T/C [32] was 18.8% and the viability, T/C [33] was 16.1%. The viability, T/C [34] was 11.9%, the viability, T/C [35] was 0.69% and the viability, T/C [36] was 0.49%.

For `COc1ccc([C@@H](O)c2cc(-c3ncnc4cc(N5CCOCC5)ccc34)c(F)cc2Cl)nn1` + CN(C)c1ccc(Nc2c3ccc(NC(=O)CCN4CCCC4)cc3nc3cc(NC(=O)CCN4CCCC4)ccc23)cc1, the IC50 (second compound 0.0316 µM) was 1560 nM, the IC50 (second compound 0.1 µM) was 486 nM and the IC50 (second compound 0.316 µM) was 466 nM. The IC50 (second compound 1 µM) was 153 nM, the IC50 (second compound 3.16 µM) was < 31.6 nM and the IC50 (second compound 10 µM) was < 31.6 nM. For the same compound, the viability, T/C [1] was 93.7%, the viability, T/C [2] was 98% and the viability, T/C [3] was 88.5%. It also gave a viability, T/C [4] of 55.3%, a viability, T/C [5] of 39.1% and a viability, T/C [6] of 20.1%. For the same compound, the viability, T/C [7] was 102%, the viability, T/C [8] was 63.5% and the viability, T/C [9] was 58.3%. It also gave a viability, T/C [10] of 44%, a viability, T/C [11] of 37% and a viability, T/C [12] of 19.8%. For the same compound, the viability, T/C [13] was 77.5%, the viability, T/C [14] was 77.2% and the viability, T/C [15] was 61%. It also gave a viability, T/C [16] of 27.6%, a viability, T/C [17] of 24% and a viability, T/C [18] of 12.1%. It also gave a viability, T/C [19] of 73.2%, a viability, T/C [20] of 47.4% and a viability, T/C [21] of 50.6%. It also gave a viability, T/C [22] of 25.5%, a viability, T/C [23] of 17.4% and a viability, T/C [24] of 11.7%. For the same compound, the viability, T/C [25] was 35.3%, the viability, T/C [26] was 40.5% and the viability, T/C [27] was 24%. It also gave a viability, T/C [28] of 14.5%, a viability, T/C [29] of 9.36% and a viability, T/C [30] of 7.69%. The viability, T/C [31] was 5.37%, the viability, T/C [32] was 4.81% and the viability, T/C [33] was 3.18%. The viability, T/C [34] was 2.32%, the viability, T/C [35] was 1.95% and the viability, T/C [36] was 0.58%.

`O=C(NO)c1cnc(N2CCN(S(=O)(=O)c3ccc4ccccc4c3)CC2)nc1` + CN(C)c1ccc(Nc2c3ccc(NC(=O)CCN4CCCC4)cc3nc3cc(NC(=O)CCN4CCCC4)ccc23)cc1 was tested, and the IC50 (second compound 0.0316 µM) was < 31.6 nM, the IC50 (second compound 0.1 µM) was < 31.6 nM and the IC50 (second compound 0.316 µM) was < 31.6 nM. The IC50 (second compound 1 µM) was < 31.6 nM, the IC50 (second compound 3.16 µM) was < 31.6 nM and the IC50 (second compound 10 µM) was < 31.6 nM. It also gave a viability, T/C [1] of 30.3%, a viability, T/C [2] of 14.9% and a viability, T/C [3] of 6.37%. The viability, T/C [4] was 6.45%, the viability, T/C [5] was 0.17% and the viability, T/C [6] was 0.08%. It also gave a viability, T/C [7] of 34.5%, a viability, T/C [8] of 15.9% and a viability, T/C [9] of 6.15%. It also gave a viability, T/C [10] of 6.73%, a viability, T/C [11] of 0.15% and a viability, T/C [12] of 0.08%. The viability, T/C [13] was 30.4%, the viability, T/C [14] was 18.8% and the viability, T/C [15] was 6.26%. The viability, T/C [16] was 5.85%, the viability, T/C [17] was 0.15% and the viability, T/C [18] was 0.1%. For the same compound, the viability, T/C [19] was 26.3%, the viability, T/C [20] was 15.7% and the viability, T/C [21] was 7.08%. For the same compound, the viability, T/C [22] was 7.15%, the viability, T/C [23] was 0.24% and the viability, T/C [24] was 0.08%. The viability, T/C [25] was 25.1%, the viability, T/C [26] was 15.6% and the viability, T/C [27] was 8.28%. For the same compound, the viability, T/C [28] was 6.85%, the viability, T/C [29] was 0.21% and the viability, T/C [30] was 0.08%. For the same compound, the viability, T/C [31] was 7.11%, the viability, T/C [32] was 4.48% and the viability, T/C [33] was 5.08%. The viability, T/C [34] was 6.28%, the viability, T/C [35] was 0.12% and the viability, T/C [36] was 0.08%.
